Inhibition in vivo, EC50 and Emax data for six compounds are collected here from patent publication US20100048564A1, “FUSED BICYCLIC HETEROARYL DERIVATIVE” (DAIICHI SANKYO COMPANY, LIMITED, priority 2007, published 2010).

Where two headings read alike, the source gives them in different places.

Assay [1] has as its system KK mice. The assay is described as follows: Hypoglycemic effect in diabetic KK mice (Test Example 1). It counts as in vivo. The settings on record: Mus musculus, po, 72 h; male KK mice, diet admixture containing 0.03% of the compound, 3 days, plasma glucose vs control group; read-out: Hypoglycemic rate (%). The text has this:
Six-week-old male KK mice were purchased from CLEA Japan, Inc. and then were fed until 15 to 20 weeks old to develop diabetes. The mice were individually fed during the adaptation period and the test period, and water and feed (FR2, Funabashi Farm) were freely ingested.
At the start of the experiment, after body weight measurement, blood was collected from the tail vein of the mice into a heparin-coated glass tube and centrifuged, and then plasma was separated. The glucose level in the plasma was measured by Glucoloader GXT (A&T Corp.), and individuals having a plasma glucose level of about 350 mg/dl or more were selected. The mice were grouped, each group having 3 to 4 mice, to make the average body weight and the average plasma glucose level similar. Each compound was administered to a compound group with a diet admixture containing 0.03% of the compound. A separate group in which the mice were fed only with diet was a control group.
The experiment period (drug administration period) was three days. The grouping day was the 0th day. On the 3rd day, the body weight was measured and blood was collected from the tail vein to measure the plasma glucose level.
The hypoglycemic rate was determined by the following formula.
Hypoglycemic rate=[(Control group blood glucose level−Compound-administered group blood glucose level)/Control group blood glucose level]×100

Assay [2] concerns Rat white adipocytes. Kind of assay: Adipocyte differentiation promotion test (Test Example 4). The format is cell-based. The note with it: for EC50: 120 h. The method, then:
Rat white adipocytes included in a white adipocyte culture kit purchased from Primary Cell Co., Ltd. were subjected to this test. A medium included in the white adipocyte culture kit purchased from Primary Cell Co., Ltd. was used as a growth medium or a differentiation-inducing medium.
The whole of the transportation medium was extracted immediately after the arrival of the purchased cells. The growth medium was added in an amount of 5 ml(/25 cm^2-flask), and the cells were cultured for one day. Thereafter, a cell suspension (83,000 cells/mL) was prepared using the growth medium. The cell suspension was dispensed to a 96-well type-I collagen-coated microplate (SUMITOMO BAKELITE Co., Ltd.) at 5,000 cells/well (60 μL/well). A well to which only the growth medium not containing cells was dispensed (blank well) was provided as a blank group in each plate.
Further, 1) for the test compound-added group, a 100 μM solution of the test compound in DMSO was diluted 20-fold with the differentiation-inducing medium; this was added at 3 μL/well (final test compound concentration: 100 nM, final DMSO concentration: 0.1% (v/v)) to the wells into which the cells were seeded. […] 3) For the negative control group, DMSO diluted 20-fold with the differentiation-inducing medium was added at 3 μL/well (final DMSO concentration: 0.1% (v/v)) to the wells into which the cells were seeded.
After culturing for five days, the whole of the differentiation-inducing medium was removed from each well, and 60 μL of a 10% (v/v) formaldehyde solution (fixative solution) was added to each well. The cells were incubated at room temperature for 20 minutes. The whole of the fixative solution was removed and 60 μL of a 0.2% (v/v) Triton X-100 solution (Sigma) was dispensed to each well. The cells were incubated at room temperature for five minutes. The whole of the Triton X-100 solution was removed. A fat stain was prepared by dissolving Oil Red 0 (Sigma) in a 60% (v/v) isopropanol solution at 0.3% (w/v), and 60 μL of the fat stain was dispensed to each well. The cells were incubated at room temperature for 10 minutes. The whole of the fat stain was removed, and then 60 μL of a 60% (v/v) isopropanol solution was dispensed and removed. Thus, each well was washed twice. Thereafter, DMSO was added to each well at 100 μL per well, followed by stirring at room temperature for five minutes. […] The degree of adipocyte differentiation (%) of the test compound-added group was calculated assuming that the measured ABS550 of the positive control group was 100% and the measured ABS550 of the negative control group was 0.

Assay [3] concerns the target T1, GAL4-PPARγ chimeric receptor (Homo sapiens, UniProt P37231).
T1 construct: containing amino acids 175 to 475 of human PPARγ and a stop codon at the carboxy end; expressed in transfected cells; host or cells: COS-7 (monkey kidney) cells, transfected with pM-PPARγ and pFR-Luc
The assay is described as follows: Measurement of PPARγ activation effect/modulator activity, GAL4-PPARγ reporter assay in COS-7 cells (Test Example 5). It counts as cell-based. The note with it: for Emax: COS-7. The method, then:
The details will be shown below.
The plasmid is a gene that can express a GAL4-PPARγ chimeric receptor in mammalian cells.
The previously acquired plasmid pM-PPARγ and the plasmid pFR-Luc purchased from Stratagene Cloning Systems, Inc. were dissolved in deionised water at a concentration of 1 mg/mL each.
On the following day, the cells were harvested by trypsin treatment, suspended in phenol red-free Dulbecco's modified Eagle's medium containing […] 10% fetal bovine serum, seeded into a white 96-well plate (manufactured by Costar) using the medium in a volume of 95 μL per well, and cultured overnight.
The test compound was dissolved in dimethyl sulfoxide at a concentration of 30 mM. […] Dimethyl sulfoxide was prepared for the control group. Rosiglitazone dissolved in dimethyl sulfoxide at a concentration of 30 mM was prepared for the positive control group. They were diluted 150-fold with the medium, and 5 μL of the dilution was added to the wells in which the cells were grown. The concentrations of the test compound treating the cells ranged from 10 μM to 0.006 nM. After the addition, the cells were cultured overnight.
On the following day, the medium was removed, and Luc Lite (manufactured by PerkinElmer Inc.) was prepared according to the attached document and added at 50 microliters per well. The plates with cells in the Luc Lite was stirred for about 30 minutes. The amount of luminescence in each well was measured as luciferase activity using Analyst (Molecular Devices) for 0.5 second. A dose-dependent curve was drawn.
(In a reporter assay the amount or activity of a reporter protein is the signal.)

Setting [4] is: Adipocyte, rat white adipocytes, test compound alone, 5 days, Oil Red O ABS550, read-out: EC50.
Where [5] appears, read: Rattus norvegicus, degree of adipocyte differentiation, positive control (Compound A 3.3 nM) 100%, negative control 0, read-out: Emax (%).
[6] abbreviates: maximum luciferase activity, positive control (Rosiglitazone) 100%, control 0%, read-out: Emax (%).
[7] abbreviates: COS-7 cells with pM-PPARγ and pFR-Luc, concentration represented by Emax/2, read-out: EC50.

T1 sequence (P37231 with tags, fused parts or gaps): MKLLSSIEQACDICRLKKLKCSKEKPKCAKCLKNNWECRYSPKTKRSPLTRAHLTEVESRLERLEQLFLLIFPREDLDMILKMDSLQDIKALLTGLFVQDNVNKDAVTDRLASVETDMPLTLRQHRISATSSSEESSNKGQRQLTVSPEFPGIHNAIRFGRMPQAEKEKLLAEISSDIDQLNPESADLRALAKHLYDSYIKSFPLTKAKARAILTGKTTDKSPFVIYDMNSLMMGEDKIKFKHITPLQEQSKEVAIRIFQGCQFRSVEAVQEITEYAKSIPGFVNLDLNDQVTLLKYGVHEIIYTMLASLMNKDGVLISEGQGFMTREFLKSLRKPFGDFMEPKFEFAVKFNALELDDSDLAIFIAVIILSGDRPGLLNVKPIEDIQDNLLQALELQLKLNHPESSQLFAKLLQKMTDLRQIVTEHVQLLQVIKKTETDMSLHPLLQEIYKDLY

As usually defined, the EC50 is the concentration giving half of the maximal effect. What is called Emax is the greatest response seen or fitted, relative to the assay's reference. For the compound `Cc1cc(Oc2ccc3nc(COc4cccc(C(=O)O)c4)n(C)c3c2)cc(C)c1N.Cl.Cl` [Example 2, 3-{[6-(4-Amino-3,5-dimethylphenoxy)-1-methyl-1H-benzimidazol-2-yl]methoxy}benzoic acid dihydrochloride], in assay [1], the inhibition in vivo at 0.03 % in diet turned out to be 37%. Also, the EC50 was found to be 4.2 nM in assay [2] (setting [4]) and 299000 pM in assay [3] (setting [7]). Moreover, the Emax in assay [2] (setting [5]) turned out to be 73%; in assay [3] (setting [6]) it was 73.3%.
For `Cl.Cn1c(COc2cccc(C(=O)O)c2)nc2ccc(Oc3cccc(F)c3)cc21` [Example 8, 3-{[6-(3-Fluorophenoxy)-1-methyl-1H-benzimidazol-2-yl]methoxy}benzoic acid hydrochloride], in that order: 29%, 7.4 nM, 4.74e+06 pM, 75% and 91%.
In the same order, the values of `Cl.Cn1c(COc2cccc(C(=O)O)c2)nc2ccc(Oc3ccc(Cl)c(F)c3)cc21` [Example 10, 3-{[6-(4-Chloro-3-fluorophenoxy)-1-methyl-1H-benzimidazol-2-yl]methoxy}benzoic acid hydrochloride] are 35%, 6.6 nM, 67000 pM, 78% and 46.5%.
For the compound `Cl.Cn1c(COc2cccc(C(=O)O)c2)nc2ccc(Oc3ccc(F)c(Cl)c3)cc21` [Example 12, 3-{[6-(3-Chloro-4-fluorophenoxy)-1-methyl-1H-benzimidazol-2-yl]methoxy}benzoic acid hydrochloride], the inhibition in vivo at 0.03 % in diet in assay [1] was 30%. Moreover, the concentration giving a half-maximal response (EC50) came out at 5.2 nM in assay [2] (setting [4]) and 39700 pM in assay [3] (setting [7]). Moreover, the Emax in assay [2] (setting [5]) was found to be 82%; in assay [3] (setting [6]), 60.2%.
For `Cl.Cn1c(COc2cccc(C(=O)O)c2)nc2ccc(Oc3ccccc3)cc21` [Example 14, 3-[(1-Methyl-6-phenoxy-1H-benzimidazol-2-yl)methoxy]benzoic acid hydrochloride], in assay [1], the inhibition in vivo at 0.03 % in diet turned out to be 33%. In assay [2] (Rattus norvegicus, Adipocyte), this compound yielded an Emax of 56% and an EC50 of 20 nM. In assay [3], this compound displayed an EC50 of 845000 pM and an Emax of 89.6%.
In the case of `Cl.Cl.Cn1c(COc2cccc(C(=O)O)c2)nc2ccc(Oc3ccccc3)nc21` [Example 16, 3-[(3-Methyl-5-phenoxy-3H-imidazo[4,5-b]pyridin-2-yl)methoxy]benzoic acid dihydrochloride], the inhibition in vivo at 0.03 % in diet in assay [1] was found to be 60%. The EC50 in assay [2] (setting [4]) is 64 nM; in assay [3] (setting [7]), 550000 pM. The figures for the Emax in assay [2] (setting [5]) and in assay [3] (setting [6]) were 71% and 60.9%, respectively.
